As a reminder, the MIC is the least concentration at which growth counts as inhibited.

From patent US20040224981A1, “Antibacterial methods and compositions” (priority 2003, published 2004) come the findings set out here.

Converted amounts (≈) assume the structure as drawn. Where a name gives a salt, the structure may show the parent alone. Read-outs that look alike come from different tables or passages of the source.

One experiment has as its system E. faecalis. The experiment is described as follows: MIC against E. faecalis. It is filed as cell-based. How it is done:
(§1) The MRS inhibitor 4 alone and in combination with mupirocin (mupirocin salt and 1:1 combination) were tested against a collection of Gram-positive pathogens.
(§2) MRSi compound 5 alone and in combination with mupirocin was tested recent clinical isolates of E. faecalis (n=28) and E. faecium (n=23). Both the acetate salt and mupirocinate salts of MRSi compound 5 maintained potent activity against vancomycin-susceptible and—resistant enterococci (Tables 8, 9, and 10).

Another experiment has as its system S. pyogenes. The experiment can be described thus: MIC against S. pyogenes. The settings on record: Table 3. It is filed as cell-based, Streptococcus pyogenes. How it is done:
as §1
S. pyogenes is also a significant skin pathogen and 48 recent clinical isolates were tested for their susceptibility to MRSi compound 5 alone (acetate) and in combination (1:1) with mupirocin (mupirocinate).

The subject of the next experiment is S. hemolyticus. The experiment is described as follows: MIC against S. hemolyticus. It is filed as cell-based. As to conditions: Table 3. How it is done:
as §1
(§3) The MRS inhibitor 8 was also prepared as a fusidate and mupirocinate salt and tested for antibacterial activity against Gram-positive bacteria (Table 3). […] MRSi compound 8 alone and the fusidate and mupirocin salts were active against mupirocin-resistant S. aureus and S. epidermidis and organisms such as E. faecalis that are not susceptible to mupirocin.
(§4) The MRS inhibitor 5 acetate and mupirocin salts were tested against a collection of Gram-positive bacteria.

For another experiment, the system named is S. epidermidis. The experiment can be described thus: MIC against S. epidermidis. The settings on record: Table 3. It is filed as cell-based. How it is done:
as §1, §3, §4

Another experiment deals with S. aureus. The experiment is described as follows: MIC against S. aureus strains and clinical isolates (broth microdilution). The format is cell-based, Staphylococcus aureus. How it is done:
were tested against a collection of clinical isolates of S. aureus including strains that were multi-resistant to mupirocin and to other agents such as gentamicin and oxacillin.
The acetate and mupirocin salts of the MRS inhibitor compound 5 were tested against a collection of both low and high-level mupirocin resistant clinical isolates of S. aureus (Table 6).
The bacterial strains were tested for susceptibility to mupirocin and MRSi compound 2 using the broth microdilution method in accordance with NCCLS guideline to determine their MICs.
Briefly, the MIC and checkerboard titration assays were performed with strains in microtiter trays with cation-supplemented Mueller-Hinton broth (Difco). Inocula were prepared by suspending growth from blood agar plates in sterile saline to a density equivalent to that of a 0.5 McFarland standard and were diluted […] to produce a final inoculum of 5×10^5 CFU/ml. The trays were incubated aerobically overnight. Standard quality control strains were included with each run. Fractional inhibitory concentrations (FICs) were calculated as the MIC of drug A or B in combination/MIC of drug A or B alone, and the FIC index was obtained by adding the two FICs. FIC indices were interpreted as synergistic if the values were ≦0.5, additive or indifferent if the values were >0.5 to 4, and antagonistic if the values were >4.0.

Another experiment relates to E. faecium. The experiment can be described thus: MIC against E. faecium. It is filed as cell-based. The settings on record: Enterococcus faecium, ATCC33667. How it is done: as §2
The test system of experiment [1] is S. aureus ATCC 29213 and 31-1334. The experiment is described as follows: Selection of spontaneous resistant mutants (mutation frequency). The format is cell-based, Staphylococcus aureus. How it is done: Approximately, 10^9 bacteria were plated onto Mueller-Hinton agar supplemented with 10% horse blood and containing various concentrations of the test compounds alone and in combination. After 24 and 48 hours of incubation at 35° C., the bacterial colonies were counted and the frequencies of mutation were determined relative to the total viable count of organisms that were plated. Resistant clones were re-plated once on plates containing the same concentration of agent that was used for the selection.

Experiment [2] has as its system S. aureus RN4220 (pYH4-MRS). The experiment is described as follows: Mode of action: MIC with MRS over-production. It is filed as cell-based.
Description: The strain expresses high levels of MRS upon the addition of 0.01 μg/mL of anyhdrotetracycline.
The mark [3] stands for this setting: Table 3, E. faecalis ATCC 29212.
The mark [4] stands for this setting: S. pyogenes MB143 (macrolide rest.).
Where [5] appears, read: Table 3, S. aureus ATCC 43300 (ORSA).
The mark [6] stands for this setting: Table 3, S. aureus NRS107 (mupA).

Regarding `Clc1cc(Cl)c2c(Cl)c(CNCCCNc3nc4ncccc4[nH]3)[nH]c2c1` [MRSi Cmpd 8 acetate, N-(1H-imidazo[4,5-b]pyridin-2-yl)-N′-(3,4,6-trichloro-1H-indol-2-ylmethyl)—propane-1,3-diamine], the MIC in the experiment with E. faecalis (Enterococcus faecalis, ATCC29212, Table 3, E. faecalis ATCC 29212, read-out: MIC) turned out to be 0.03 µg/mL; in the experiment on E. faecalis (Enterococcus faecalis, Table 3, E. faecalis 1, read-out: MIC), 0.03 µg/mL; in the experiment on E. faecalis (Enterococcus faecalis, Table 3, E. faecalis 7, read-out: MIC), 0.03 µg/mL; with S. pyogenes (Streptococcus pyogenes, ATCC19615, S. pyogenes ATCC 19615, read-out: MIC), 0.12 µg/mL; in the experiment on S. pyogenes (Streptococcus pyogenes, S. pyogenes MB143 (macrolide rest.), read-out: MIC), 0.12 µg/mL; with S. hemolyticus (S. hemolyticus NRS50, read-out: MIC), 0.06 µg/mL. For the same compound, the MIC is 0.12 µg/mL with S. hemolyticus (S. hemolyticus NRS116, read-out: MIC); 0.12 µg/mL in the experiment with S. epidermidis (Staphylococcus epidermidis, S. epidermidis NRS6, read-out: MIC); 0.06 µg/mL in the experiment on S. epidermidis (Staphylococcus epidermidis, S. epidermidis NRS7, read-out: MIC); 0.12 µg/mL in the experiment with S. epidermidis (Staphylococcus epidermidis, S. epidermidis NRS8, read-out: MIC); 0.06 µg/mL in the experiment with S. aureus (Staphylococcus aureus, ATCC29213, Table 3, S. aureus ATCC 29213, read-out: MIC); 0.03 µg/mL in the experiment with S. aureus (Staphylococcus aureus, ATCC43300, Table 3, S. aureus ATCC 43300 (ORSA), read-out: MIC). In addition, the minimal inhibitory concentration (MIC) was 0.03 µg/mL in the experiment with S. aureus (Staphylococcus aureus, NRS107, Table 3, S. aureus NRS107 (mupA), read-out: MIC) and 0.03 µg/mL with S. aureus (Staphylococcus aureus, Table 3, S. aureus Oxford, read-out: MIC).
Take `CC(=O)O[C@H]1C[C@@]2(C)[C@@H](C[C@@H](O)[C@H]3[C@@]4(C)CC[C@@H](O)[C@@H](C)[C@@H]4CC[C@@]32C)/C1=C(\CCC=C(C)C)C(=O)O.Clc1cc(Cl)c2c(Cl)c(CNCCCNc3nc4ncccc4[nH]3)[nH]c2c1` [MRSi Cmpd 8 fusidate, N-(1H-IMIDAZO[4,5-B] PYRIDIN-2-YL)-N′-(3,4,6-TRICHLORO-1H-INDOL-2-YLMETHYL)-PROPANE-1,3-DIAMINE FUSIDATE]: the MIC in the experiment with E. faecalis (Table 3, E. faecalis 1) stood at 0.06 µg/mL; with E. faecalis (Table 3, E. faecalis 7) it was 0.12 µg/mL; with E. faecalis (setting [3]), 0.12 µg/mL; in the experiment with S. pyogenes (S. pyogenes ATCC 19615), 0.5 µg/mL; with S. pyogenes (setting [4]), 0.5 µg/mL; with S. hemolyticus (S. hemolyticus NRS50), 0.12 µg/mL. Further, the MIC was 0.25 µg/mL in the experiment on S. hemolyticus (S. hemolyticus NRS116); 0.25 µg/mL in the experiment with S. epidermidis (S. epidermidis NRS6); 0.12 µg/mL in the experiment on S. epidermidis (S. epidermidis NRS7); 0.25 µg/mL with S. epidermidis (S. epidermidis NRS8); 0.12 µg/mL in the experiment with S. aureus (Table 3, S. aureus ATCC 29213); 0.06 µg/mL in the experiment with S. aureus (setting [5]). In addition, the MIC in the experiment with S. aureus (setting [6]) was found to be 0.06 µg/mL; with S. aureus (Table 3, S. aureus Oxford) it was 0.06 µg/mL.
Regarding `CC(=CC(=O)OCCCCCCCCC(=O)O)CC1OCC(CC2OC2C(C)C(C)O)C(O)C1O.Clc1cc(Cl)c2c(Cl)c(CNCCCNc3nc4cccnc4[nH]3)[nH]c2c1` (stereo not drawn) [MRSi Cmpd 8 mupirocinate, N-(1H-IMIDAZO [4,5-B]PYRIDIN-2-YL)-N′-(3,4,6-TRICHLORO-1H—INDOL-2-YLMETHYL)-PROPANE-1,3-DIAMINE MUPIROCINATE], the MIC worked out at 0.06 µg/mL in the experiment with E. faecalis (Table 3, E. faecalis 1); 0.12 µg/mL with E. faecalis (Table 3, E. faecalis 7); 0.12 µg/mL with E. faecalis (setting [3]); 0.25 µg/mL in the experiment on S. pyogenes (S. pyogenes ATCC 19615); 0.12 µg/mL in the experiment with S. pyogenes (setting [4]); 0.12 µg/mL with S. hemolyticus (S. hemolyticus NRS50). In addition, the MIC in the experiment on S. hemolyticus (S. hemolyticus NRS116) is 0.25 µg/mL; with S. epidermidis (S. epidermidis NRS6) it was 0.5 µg/mL; in the experiment on S. epidermidis (S. epidermidis NRS7), 0.12 µg/mL; in the experiment on S. epidermidis (S. epidermidis NRS8), 0.25 µg/mL; in the experiment on S. aureus (Table 3, S. aureus ATCC 29213), 0.12 µg/mL; in the experiment with S. aureus (setting [5]), 0.12 µg/mL. Further, the MIC was found to be 0.12 µg/mL in the experiment on S. aureus (setting [6]) and 0.12 µg/mL with S. aureus (Table 3, S. aureus Oxford).
On to `Brc1cc(Br)c2c(c1)C(NCCCNc1nc3ncccc3[nH]1)CCN2` (stereo not drawn) [MRSi cmpd 2, N-(6,8-Dibromo-1,2,3,4-tetrahydroquinolin-4-yl)-N′-(1H-imidazo[4,5-b]pyridine-2-yl)-propane-1,3-diamine dihydrochloride], for which the MIC in the experiment with E. faecalis (Enterococcus faecalis, ATCC 51299 / VRE, Table 8, E. faecalis ATCC 51299 (VRE)) was 0.03 µg/mL; with E. faecalis (Enterococcus faecalis, Table 8, E. faecalis 1), 0.015 µg/mL; in the experiment with E. faecalis (Enterococcus faecalis, Table 8, E. faecalis 7), 0.06 µg/mL; in the experiment on E. faecium, not above 4 ng/mL; in the experiment with S. aureus (Staphylococcus aureus, ATCC43300, S. aureus ATCC 43300 (ORSA), read-out: MIC) it was 0.25 µg/mL; in the experiment with S. aureus (Staphylococcus aureus, NRS 1 / VISA, S. aureus NRS1 (VISA)), 0.25 µg/mL. The MIC was found to be 0.06 µg/mL in the experiment with S. aureus (Staphylococcus aureus, NRS107, S. aureus NRS107 (HL Mup rest.), read-out: MIC); 0.25 µg/mL in the experiment on S. aureus (Staphylococcus aureus, S. aureus 10-420 (LL Mup. Rest.), read-out: MIC); 0.25 µg/mL in the experiment with S. aureus (Staphylococcus aureus, S. aureus 14-354 (LL Mup. Rest.), read-out: MIC); 0.25 µg/mL in the experiment on S. aureus (Staphylococcus aureus, S. aureus 25-670 (HL Mup. Rest.), read-out: MIC); 0.25 µg/mL with S. aureus (Staphylococcus aureus, S. aureus 31-1334 (LL Mup Rest.), read-out: MIC); 0.06 µg/mL in the experiment with S. aureus (Staphylococcus aureus, S. aureus 36-1298 (LL Mup. Rest.), read-out: MIC). Also, the MIC in the experiment on S. aureus (Staphylococcus aureus, S. aureus 87-2797 (HL Mup. Rest.), read-out: MIC) amounted to 0.25 µg/mL; with S. aureus (Staphylococcus aureus, S. aureus 87-2797 (Mup. Susc.), read-out: MIC), 0.25 µg/mL; in the experiment with S. aureus (Staphylococcus aureus, S. aureus 101-100 (Mup. Susc.), read-out: MIC), 0.12 µg/mL; with S. aureus (Staphylococcus aureus, S. aureus LZ1 (HL Mup rest.), read-out: MIC) it was 0.12 µg/mL; in the experiment with S. aureus (Staphylococcus aureus, S. aureus LZ6 (HL Mup rest.), read-out: MIC), 0.25 µg/mL; in the experiment on S. aureus (Staphylococcus aureus, S. aureus LZ8 (LL Mup. Rest.), read-out: MIC), 0.25 µg/mL. Moreover, the MIC in the experiment on S. aureus (Staphylococcus aureus, S. aureus LZ9, read-out: MIC) is 0.25 µg/mL; in the experiment with S. aureus (Staphylococcus aureus, S. aureus LZ10, read-out: MIC), 0.25 µg/mL; in the experiment on S. aureus (Staphylococcus aureus, S. aureus Miles Hall, read-out: MIC), 0.12 µg/mL; with S. aureus (Staphylococcus aureus, S. aureus Oxford, read-out: MIC), 0.12 µg/mL; with S. aureus (Table 12, S. aureus 25-670, high level mupirocin-resistant, agent alone), 0.5 8 g/mL. The “Mutation Frequency (48 hours)” value is reported as 3.3 × 10^−7 in experiment [1] (S. aureus 31-1334 (low level mupirocin-resistant), selecting concentration 2 x MIC); 6.8 × 10^−8 in experiment [1] (S. aureus 31-1334 (low level mupirocin-resistant), selecting concentration 4 x MIC); 1.9 × 10^−8 in experiment [1] (S. aureus 31-1334 (low level mupirocin-resistant), selecting concentration 8 x MIC); 1.01 × 10^−7 in experiment [1] (S. aureus ATCC 29213 (mupirocin susceptible), selecting concentration 2 x MIC); 3.14 × 10^−8 in experiment [1] (S. aureus ATCC 29213 (mupirocin susceptible), selecting concentration 4 x MIC); 2.07 × 10^−8 in experiment [1] (S. aureus ATCC 29213 (mupirocin susceptible), selecting concentration 8 x MIC). Also, the MIC90 in the experiment with S. aureus (Staphylococcus aureus, all S. aureus strains of Table 1, read-out: MIC 90) came out at 0.25 µg/mL. In addition, in the experiment on S. aureus (all S. aureus strains of Table 1 (mupirocin-susceptible and -resistant)), the “MIC Range” value lay within 0.06 to 0.25 µg/mL.
Regarding `CO[C@@H]1[C@@H](OC(N)=O)[C@@H](O)[C@H](Oc2ccc3c(O)c(NC(=O)c4ccc(O)c(CC=C(C)C)c4)c(=O)oc3c2C)OC1(C)C` [Novobiocin], the MIC in experiment [2] (S. aureus RN4220 (pYH4-MRS), +aTC (MRS over-expression)) was determined as 0.25 µg/mL (≈ 0.408 µM); in experiment [2] (Staphylococcus aureus), 0.25 µg/mL (≈ 0.408 µM).
